Data on two substances can be found in US8729030B2 (Affymax, Inc., priority 2003, dated 2014).

Bridges are numbered along the chain shown (N, C = ends). Where no end group is shown, it is not given here. [ ]: non-standard residue; d: D form. 1Nal = N[C@@H](Cc1cccc2ccccc12)C(=O)O; Sar = CNCC(=O)O

In one test the target is T1, EPO-R (Homo sapiens, UniProt P19235).
T1 construct: made in house; host or cells: Chinese Hamster Ovary cells
T1 sequence (P19235 25-250 limits assumed): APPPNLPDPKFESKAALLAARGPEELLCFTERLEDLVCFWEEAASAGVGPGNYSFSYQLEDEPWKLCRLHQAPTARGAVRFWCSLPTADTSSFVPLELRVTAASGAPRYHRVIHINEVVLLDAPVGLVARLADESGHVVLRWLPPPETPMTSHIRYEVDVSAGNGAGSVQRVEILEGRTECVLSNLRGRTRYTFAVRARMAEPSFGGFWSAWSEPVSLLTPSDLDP
Description: Competitive binding assay (AlphaQuest bead proximity, AQ). Particulars: Table 2; competition with biotinylated EPO-R-binding peptide tracer. From the text:
Competitive binding calculations are made using an assay in which a light signal is generated as a function of the proximity of two beads: a streptavidin donor bead bearing a biotinylated EPO-R-binding peptide tracer and an acceptor bead to which is bound EPO-R. Light is generated by non-radiative energy transfer, during which a singlet oxygen is released from a first bead upon illumination, and contact with the released singlet oxygen causes the second bead to emit light. These bead sets are commercially available (Packard). Bead proximity is generated by the binding of the EPO-R-binding peptide tracer to the EPO-R. A test peptide that competes with the EPO-R-binding peptide tracer for binding to EPO-R will prevent this binding, causing a decrease in light emission.
In more detail the method is as follows: Add 4 μL of serial dilutions of the test EPO-R agonist peptide, or positive or negative controls, to wells of a 384 well plate. Thereafter, add 2 μL/well of receptor/bead cocktail. […]
Centrifuge 1 min to mix. […] After 18 hours read light emission using an AlphaQuest reader (Packard). […]

For test [1], the system named is human, bone marrow derived CD34+ cells. Description: C/BFU-e assay (erythroid colony formation). It is filed as cell-based. To be noted: Table 2; colonies 90% of maximum relative to EPO control, 14 days. From the text:
EPO-R signaling stimulates the differentiation of bone marrow stem cells into proliferating red blood cell presursors. This assay measures the ability of test peptides to stimulate the proliferation and differentiation of red blood cell precursors from primary human bone marrow pluripotent stem cells.
For this assay, serial dilutions of test peptide are made in IMDM medium (Gibco) supplemented with 10% FBS (Hyclone). […] The methylcellulose and peptide mixture is then vortexed thoroughly. Aliquots (100,000 cells/mL) of human, bone marrow derived CD34+ cells (Poietics/Cambrex) are thawed. The thawed cells are gently added to 0.1 mL of 1 mg/ml DNAse (Stem Cells) in a 50 mL tube. Next, 40-50 mL IMDM medium is added gently to cells: the medium is added drop by drop along the side of the 50 mL tube for the first 10 mL, and then the remaining volume of medium is slowly dispensed along the side of the tube. The cells are then spun at 900 rpm for 20 min, and the media removed carefully by gentle aspiration. The cells are resuspended in 1 ml of IMDM medium and the cell density per mL is counted on hemacytometer slide (10 μL aliquot of cell suspension on slide, and cell density is the average count×10,000 cells/ml). The cells are then diluted in IMDM medium to a cell density of 15,000 cells/mL. A 100 μL of diluted cells is then added to each 1.5 mL methyl cellulose plus peptide sample (final cell concentration in assay media is 1000 cells/mL), and the mixture is vortexed. Allow the bubbles in the mixture to disappear, and then aspirate 1 mL using blunt-end needle. Add 0.25 mL aspirated mixture from each sample into each of 4 wells of a 24-well plate (Falcon brand). Incubate the plated mixtures at 37° C. under 5% CO2 in a humid incubator for 14 days. Score for the presence of erythroid colonies using a phase microscope (5×-10× objective, final magnification of 100×).
EPO-R signaling stimulates the differentiation of bone marrow stem cells into proliferating red blood cell precursors. […]

The target in test [2] is chimeric receptor comprising the extra-cellular portion of the human EPO receptor to the intra-cellular portion of the human GCSF receptor. Briefly: Reporter assay (Baf3/EpoR/GCSFR fos/lux luciferase). It is filed as cell-based. Particulars: Table 2; Baf3/EpoR/GCSFR fos/lux cells, 4 h. From the text:
This assay is based upon a on a murine pre-B-cell line derived reporter cell, Baf3/EpoR/GCSFR fos/lux. This reporter cell line expresses a chimeric receptor comprising the extra-cellular portion of the human EPO receptor to the intra-cellular portion of the human GCSF receptor. This cell line is further transfected with a fos promoter-driven luciferase reporter gene construct. Activation of this chimeric receptor through addition of erythropoietic agent results in the expression of the luciferase reporter gene, and therefore the production of light upon addition of the luciferase substrate luciferin. Thus, the level of EPO-R activation in such cells may be quantitated via measurement of luciferase activity.
The Baf3/EpoR/GCSFR fos/lux cells are cultured in DMEM/F12 medium (Gibco) supplemented with 10% fetal bovine serum (FBS; Hyclone), 10% WEHI-3 supernatant (the supernatant from a culture of WEHI-3 cells, ATCC #TIB-68), and penicillin/streptomycin. […] Following a 5-minute incubation, light emission is measured on a Packard Topcount Luminometer (Packard Instrument Co., Downers Grove, Ill.). Light counts are plotted relative to test peptide concentration and analysed using Graph Pad software. The concentration of test peptide that results in a half-maximal emission of light is recorded as the EC50 [See Table 2: Reporter EC50]. […]

For the substance “peptide dimer of monomers (AcG)GLYACHMGPIT(1-nal)VCQPLR(MeG) (SEQ ID NO: 3) [Peptide II] (Ac-GGLYACHMGPIT[1Nal]VCQPLR[Sar]; disulfide 6-15 (inferred); not fully specified (residue 1); printed as (AcG)GLYACHMGPIT(1-nal)VCQPLR(MeG); also: homodimer, dimer linkage not given here)”, the IC50 (usually the concentration at which inhibition is half-maximal) with EPO-R stood at 0.11 nM. Besides, in test [1], the EC90 (usually the point of the concentration-response curve where the effect stands at 90%) is 2.2 nM.

As for “peptide dimer of monomers (AcG)GLYACHMGPIT(1-nal)VCQPLR(MeG) (SEQ ID NO: 3) [Peptide III] (Ac-GGLYACHMGPIT[1Nal]VCQPLR[Sar]; disulfide 6-15 (inferred); not fully specified (residue 1); printed as (AcG)GLYACHMGPIT(1-nal)VCQPLR(MeG); also: homodimer, dimer linkage not given here)”, the EC50 (in general, the concentration at which the effect is half-maximal) in test [2] worked out at 0.15 nM. Further, in test [1], the EC90 stood at 2.7 nM.
